# Measurements: patent US12553041B2, “Formulations and doses of pegylated uricase” (Cartesian Therapeutics Inc., priority 2019, dated 2026)
# Values joined by “and” are separate entries in the source; they are usually repeats but may differ in a detail not shown here. Identical values can stand only once. Like-named read-outs stand apart in the source and are kept apart here.
# Tests used:
# [1] = system: patients with hyperuricemia and gout; conditions: cited from earlier work; for Subjects that required treatment for at least one gout flare: first 8 weeks, with gout flare prophylaxis; for Flares per patient month (flare frequency): worked out from literature data
# patients with gout = conditions: cited from earlier work; for Patients with gout flares requiring treatment in a month: colchicine prophylaxis; for Flares per patient month (flare frequency): worked out from literature data
# anti-uricase IgG = test: Anti-uricase antibody titer by sandwich ELISA, monthly dosing in symptomatic gout patients; format: in vivo, human
# Method: Safety, tolerability, sUA, ADAs, and uricase activity were monitored.
# In this example, “responder” indicates an individual with serum uric acid values […] and serum uric acid ≤1 mg/dL on day 21 (stopping rule). In this example, a “non-responder” is a subject having serum uric acid levels ≥6 mg/dL at any time during a 28 day dosing cycle. The “maximum titer” is the maximum titer observed during a 28 day dosing cycle.
# Anti-uricase antibodies were detected using a sandwich ELISA. […] Uricase activity was measured fluorometrically.
# nonhuman primates = test: Proof of concept study in nonhuman primates, uricase specific ADAs; format: in vivo; conditions: pegsiticase alone, five monthly doses; by the end of the study
# Method: A preclinical study to evaluate the ability of SVP Rapamycin to mitigate the formation of uricase specific ADAs in nonhuman primates was also conducted. As depicted in FIG. 3, during the study: • pegsiticase was administered alone, referred to as the Empty Nanoparticle Group, or • was co-administered with one of two dose levels of SVP Rapamycin, referred to as the SVP Rapamycin 0.1× and SVP Rapamycin 1× Groups, respectively. The SVP Rapamycin 0.1× Group received a dose level of SVP Rapamycin of 0.3 mg/kg and the SVP Rapamycin 1× Group received a dose level of SVP Rapamycin of 3 mg/kg.
# The Empty Nanoparticle Group received three monthly doses of pegsiticase and each of the SVP Rapamycin 0.1× Group and SVP Rapamycin 1× Group received three monthly doses of pegsiticase co-administered with SVP Rapamycin. All groups then received two monthly doses of pegsiticase alone. The SVP Rapamycin 0.1× Group received one tenth of the dose administered in the SVP Rapamycin 1× Group.
# [2] = system: mice genetically deficient in endogenous uricase; test: Proof of concept study in uricase deficient mice; format: in vivo
# Method: A pharmacology study in mice that were genetically deficient in endogenous uricase was conducted. The study evaluated the efficacy of a dose regimen consisting of three immunizations with SEL 212 followed by doses of pegsiticase alone in preventing the formation of ADAs to pegsiticase. The treatment period consisted of the first 14 days of the study. In the study, mice were separated into three treatment groups. During the treatment period: • the first group, referred to as the Untreated Group, received no treatment; • the second group, referred to as the Pegsiticase Group, was treated with pegsiticase alone; and • the third group, referred to as the SVP Rapamycin+Pegsiticase Group, was treated with SVP Rapamycin co administered with pegsiticase.
# The Pegsiticase Group and SVP Rapamycin+Pegsiticase Group were treated on days zero, seven and 14 of the treatment period. Each group was then treated with pegsiticase alone on days 35 and 42 of the study, or the challenge period. Uricase specific ADA levels were recorded to determine the formation of ADAs to pegsiticase. Uric acid levels were measured to determine effectiveness of SVP Rapamycin co administered with pegsiticase in lowering uric acid levels below 6 mg/dl, which is the treatment target for gout patients.
# [3] = system: patients with serum uric acid levels greater than 6 mg/dl; test: Phase 1b clinical trial, SVP Rapamycin alone, pegsiticase alone or SEL 212
# Method: The Phase 1b clinical trial enrolled 63 patients with serum uric acid levels greater than 6 mg/dl separated into 11 cohorts. A single intravenous infusion of SVP Rapamycin alone at the following ascending dose levels was administered to four cohorts in ascending order. Each cohort consisted of seven patients and were designated as follows: Cohort #1 (0.03 mg/kg), Cohort #3 (0.1 mg/kg), Cohort #5 (0.3 mg/kg) and Cohort #7 (0.5 mg/kg) collectively the SVP Rapamycin Cohorts. After a cohort of the SVP-Rapamycin alone had successfully and safely been dosed the corresponding dose level of SVP Rapamycin was combined with a fixed dose of pegsiticase (0.4 mg/kg). The combination was co-administered sequentially as a single intravenous infusion, with the SVP Rapamycin infusion preceding the pegsiticase infusion. The cohort designation is as follows for the six cohorts (5 patients per cohort), which were Cohort #2 (SVP Rapamycin 0.03 mg/kg+0.4 mg/kg pegsiticase), Cohort #4 (SVP Rapamycin 0.1 mg/kg+0.4 mg/kg pegsiticase), Cohort #6 (SVP Rapamycin 0.3 mg/kg+0.4 mg/kg pegsiticase), Cohort #10 (0.4 mg/kg pegsiticase+0.03 mg/kg SVP Rapamycin separated by 48 hours), Cohort #12 (SVP Rapamycin 0.15 mg/kg+0.4 mg/kg pegsiticase) and Cohort #14 (SVP Rapamycin 0.1 mg/kg+0.4 mg/kg pegsiticase) collectively the SEL 212 Cohorts. In Cohort #9 a fixed amount of pegsiticase alone at a dose level of 0.4 mg/kg was administered to five patients, which is referred to as the Pegsiticase Cohort. […] The subjects were monitored during a 30 day period post infusion with visits occurring on day 7, 14,21 and the end of trial visit on day 30. Blood and serum of each patient was evaluated for serum uric acid, ADAs (specifically anti-PEG, anti-uricase and anti-pegsiticase) and safety parameters. The primary objective of the Phase 1b clinical trial was to evaluate the safety and tolerability of SVP Rapamycin alone and in combination with a fixed dose of pegsiticase. A secondary clinical objective was to evaluate the ability of SVP Rapamycin co-administered with pegsiticase to reduce serum uric acid levels and mitigate the formation of uricase specific ADAs when compared to administration of pegsiticase alone.
# uricase activity = conditions: human, in vivo
# Method: Methods: Patients with symptomatic gout (≥1 tophus, gout flare within 6 months or gouty arthropathy) and elevated SUA ≥6 mg/dL were treated with fixed doses of the pegylated uricase (0.2 mg/kg) in combination with SEL-110 (0.1 and 0.15 mg/kg), or the pegylated uricase (0.2 or 0.4 mg/kg) alone as a control. Patients were infused in 28-day cycles up to 5 times. Safety, tolerability, sUA, ADAs, and uricase activity were monitored.
# Uricase activity was measured fluorometrically. As uricase converts uric acid into allantoin and H2O2, horseradish peroxidase was added and reached with H2O2 and a fluorescent probe to yield a quantifiable signal.
# [4] = system: subjects with elevated serum uric acid levels greater than 6 mg/dl; test: Phase 1a clinical trial, single intravenous infusion of pegsiticase alone; format: in vivo
# Method: The Phase 1a clinical trial for SEL 212 was an ascending dose trial of pegsiticase alone in 22 subjects with elevated serum uric acid levels greater than 6 mg/dl who were separated into five cohorts. Each cohort received a single intravenous infusion of pegsiticase at the following dose levels of 0.1 mg/kg for Cohort #1, 0.2 mg/kg for Cohort #2, 0.4 mg/kg for Cohort #3, 0.8 mg/kg for Cohort #4 and 1.2 mg/kg for Cohort #5. Dosing began with the lowest dose and only after an entire cohort was safely dosed was the next cohort started.
# FIG. 4 depicts average serum uric acid levels of the Phase 1a clinical trial's five cohorts tested at different measurement intervals (Day 7, 14, 21 and 30) during the course of the 30 day period following the single intravenous infusion of pegsiticase at the outset of the trial.
# The serum uric acid levels were measured at baseline and days seven, 14, 21 and 30 and uricase specific ADA levels at baseline and days seven, 14 and 30 following a single intravenous injection of pegsiticase. Uricase specific ADA levels at day 21 in the Phase 1a clinical trial were not measured. Based on the results from the Phase 1a clinical trial, it was observed that pegsiticase at a tolerated dose is capable of achieving and maintaining a reduction of serum uric acid below the target of 6 mg/dl for a 30 day period in the absence of inhibitory uricase specific ADAs.
# [5] = system: patients with refractory gout; conditions: cited from earlier work; for Flares per patient month (flare frequency): worked out from literature data; for Mean uric acid levels at four weeks: monthly dosing
molecule,measurement,setting,value
"Cc1nc(-c2ccc(OCC(C)C)c(C#N)c2)sc1C(=O)O [Febuxostat, febuxostat]",Subjects that required treatment for at least one gout flare,"[1]; 80 mg/day, out of 255 subjects",55
same,Flares per patient month (flare frequency),[1]; 80 mg/day,0.22 flares per patient month
same,Flares per patient month (flare frequency),"[1]; 80 mg/day, listed as febuxostat",at least 0.22 flares per patient month
same,Subjects that required treatment for at least one gout flare,"[1]; 120 mg/day, out of 250 subjects",90
same,Flares per patient month (flare frequency),[1]; 120 mg/day,0.36 flares per patient month
same,Flares per patient month (flare frequency),"[1]; 120 mg/day, listed as febuxostat",≥ 0.36 flares per patient month
"O=C(O)CSc1nnc(Br)n1-c1ccc(C2CC2)c2ccccc12 [Lesinurad, lesinurad]",Patients with gout flares requiring treatment in a month,"patients with gout; 200 mg daily, out of 46 patients",10
same,Time of efficacy (area under curve of mean AIN levels over time),patients with gout; 200 mg/day,158.5
same,Flares per patient month (flare frequency),patients with gout; 200 mg/day,0.22 flares per patient month
same,Patients with gout flares requiring treatment in a month,"patients with gout; 400 mg daily, out of 42 patients",13
same,Time of efficacy (area under curve of mean AIN levels over time),patients with gout; 400 mg/day,165.8
same,Flares per patient month (flare frequency),patients with gout; 400 mg/day,0.31 flares per patient month
same,Patients with gout flares requiring treatment in a month,"patients with gout; 600 mg daily, out of 48 patients",15
same,Time of efficacy (area under curve of mean AIN levels over time),patients with gout; 600 mg/day,167.5
same,Flares per patient month (flare frequency),patients with gout; 600 mg/day,0.31 flares per patient month
Recombinant Pegylated Candida Urate Oxidase [pegsiticase],Treatment periods with maximum antibody titers <1080,"anti-uricase IgG; 28-day cycles, SEL-212 111/133, pegylated uricase alone 1/7 treatment periods",14.3%
same,Anti-uricase antibodies,"anti-uricase IgG; pegylated uricase alone, discontinued from the study within the first two months",developed high titer antibodies
same,Uricase specific ADAs,nonhuman primates,high levels of uricase specific ADAs
same,Uric acid levels,[2]; after the first dose in the treatment period,below 6 mg/dl
same,Uric acid levels,[2]; subsequent doses in the treatment period and challenge period,> 6 mg/dL
same,Uricase specific ADA levels (antibody formation),"[2]; uricase deficient mice, treatment period (days 0, 7, 14) and challenge period (days 35, 42)",developed uricase specific ADAs
same,Subjects that returned to baseline serum uric acid levels by day 30,[3]; Cohort #9: pegsiticase alone 0.4 mg/kg,four of the five
same,Enzyme activity past day 14,"[3]; pegsiticase alone 0.4 mg/kg, Cohort #3 Phase 1a and Cohort #9 Phase 1b",loose the enzyme activity
same,Uricase specific ADA formation,"[3]; pegsiticase alone 0.4 mg/kg, Cohort #3 Phase 1a and Cohort #9 Phase 1b, resulting in return to baseline serum uric acid",uricase specific ADA formation at day 14
same,"Serum uric acid, initial control","[3]; pegsiticase alone 0.4 mg/kg, Cohort #3 Phase 1a and Cohort #9 Phase 1b, up to day 14",below 6 mg/dL
same,Average uricase activity AUC,uricase activity,3437 mU/dL*wk
same,Flare in 1st month,"[4]; individual subject with history of gout, SEL-037 0.8 mg/kg",no
same,Flare in 1st month,"[4]; individual subjects with history of gout, SEL-037 0.1 mg/kg, 0.1 mg/kg",no and yes (2×) and yes (positive for
same,Flare in 1st month,"[4]; individual subjects with history of gout, SEL-037 0.2 mg/kg, 0.2 mg/kg","no and yes (mild gout, right"
same,Subjects with a history of gout with signs of gout flare in the first month,"[4]; pegsiticase alone, 4 out of 7 patients",57%
same,Onset of reduction of average serum uric acid levels,"[4]; single IV infusion, 0.1 to 1.2 mg/kg",within hours
same,Serious adverse events and tolerability,"[4]; single IV infusion, five dose levels 0.1 to 1.2 mg/kg",no serious adverse events and was well tolerated
same,Uricase specific ADAs,"[4]; single IV infusion, varying levels",induced uricase specific ADAs in all subjects
same,Serum uric acid maintained,"[4]; tolerated dose, 30 day period, in the absence of inhibitory uricase specific ADAs",< 6 mg/dL
pegloticase [KRYSTEXXA®],Treated subjects that developed ADAs,[5]; all KRYSTEXXA-treated subjects,89%
same,Flares per patient over the first 3 months,"[5]; biweekly pegloticase, 85 patients",2.3 flares per patient
same,Time of efficacy (area under curve of mean AIN levels over time),"[5]; biweekly, nonresponders",Nonresponders-84.35
same,Time of efficacy (area under curve of mean AIN levels over time),"[5]; biweekly, responders",Responders-26.6
same,Flares per patient month (flare frequency),[5]; biweekly,0.77 flares per patient month
same,Subjects classified as non-responders,[5]; monthly dosing cohorts,65%
same,Subjects classified as responders (uric acid below 6 mg/dl for 80% of the time at months three and six),[5]; monthly dosing cohorts,35%
same,Mean uric acid levels at four weeks,[5]; non-responders,above 6 mg/dl
same,Mean uric acid levels at four weeks,[5]; responders,above 4 mg/dl
same,Flares per patient over the first 3 months,"[5]; monthly pegloticase, 84 patients",2.7 flares per patient
same,Time of efficacy (area under curve of mean AIN levels over time),"[5]; monthly, nonresponders",Nonresponders-99.75
same,Time of efficacy (area under curve of mean AIN levels over time),"[5]; monthly, responders",Responders-53.55
same,Flares per patient month (flare frequency),"[5]; monthly, listed as Pegloticase",0.90 flares per patient month
same,Flares per patient month (flare frequency),"[5]; monthly, listed as pegloticase",0.9 flares per patient month
